Test results as given in patent US20090076067A1, “PHARMACEUTICAL COMPOSITION COMPRISING AZARHODACYANINE COMPOUND AS ACTIVE INGREDIENT” (priority 2005, published 2009).
In brackets after ≈: the same amount, converted by molar mass. Like-named read-outs stand apart in the source and are kept apart here.

Tests used:
[1] = test system: Plasmodium Falciparum k1 strain; assay: Chloroquine-resistant tropical malaria protozoa proliferation inhibition screening test; format: cell-based; details: for Selective toxicity: EC50 rat L6 cells / EC50 Chloroquine-resistant malaria protozoa; for EC50: Plasmodium falciparum
Method: In this experiment, Plasmodium Falciparum k1 strain protozoa were used. The medium used in the experiment was filter-sterilized RPMI-1640 medium. To the medium human serum was added to achieve 5% concentration. The protozoa was cultured under condition of O2 concentration 3%, CO2 concentration 4%, N2 concentration 93%, and temperature 37° C.
The cultured malaria infected red blood cells were collected by centrifugation, diluted with non-infected red blood cells, to achieve initial infection rate 0.15%. The hematocrit was 2.5%.
To each well in a 96-well culture plate, 200 μL malaria infected culture was added, and either test solution containing test compound at predefined concentration or DMSO having no test compound was added. Each test solution was prepared in duplicate. After 48 hours culture under 37° C., hypoxanthine labeled with radioactive tritium (^3H) of 0.5 μCi was added to each well. After culturing under same condition for 24 hours, the product was collected on a glass fiber filter and washed. The intensity of radiation was measured by Beta plate liquid scintillation counter (Wallac Inc.), to determine malaria protozoa infection rate in test compound samples and control samples.
Using the malaria protozoa infection rate, the proliferation inhibition rate was calculated according to the following equation to determine 50% proliferation inhibition concentration (EC50).
(§1) Proliferation inhibition rate(%)={1−(b−a)/(c−a)}×100
(§2) a: initial infection rate b: infection rate of test compound solution c: infection rate of the control

[2] = Rat L6 cell proliferation inhibition test; format: cell-based; details: read-out: EC50 cytotoxicity L6
Method: Rat-derived L6 cells (rat skeletal myoblast cell) were used for this test. […] The sample was cultured under CO2 concentration 5% and temperature 37° C. Either the composition of the invention or control was dissolved into DMSO, to prepare test solutions having predefined concentration.
The samples were precultured until logarithmic growth phase was reached. Then the culture was transferred to each well in a 96-well culture plate, and either test solution containing test compound at predefined concentration or DSMO without compound was added. The test solution was duplicated.
The plate was cultured in an incubator for 72 hours, to examine proliferation inhibition activity. The activity was examined as follows. Alamar Blue water solution 10 μL was added to each well, and culture was continued for 2 hours. Next, the culture plate was mounted on a fluorescence microplate reader (Spectramax Gemeni XS; Molecular Devices Corporation, U.S.), and irradiated with excitation wavelength 536 nm to determine fluorescence at 588 nm. The survival rate of L6 cells in the test solution sample and control sample was calculated.
Proliferation inhibition rate(%)={(C−A)/(B−A)}×100
A: Initial cell count B: Cell count in control after 3 days C: Cell count in test solution after 3 days

[3] = test system: Trypanosoma cruzi (Tulahuen C2C4 strain); assay: American trypanosoma protozoa proliferation inhibition screening test; format: cell-based; details: for Selective toxicity: EC50 rat L6 cells / EC50 American trypanosoma protozoa; for EC50: Trypanosoma cruzi, Tulahuen C2C4 strain in rat L6 cells, 96 hours, CPRG/Nonidet, read-out: EC50 Trypanosoma cruzi
Method: In this experiment, amastigote and trypomastigote of Trypanosoma cruzi (Tulahuen C2C4 strain) infected to rat L6 cells were used. The medium used in the experiment was prepared as follows: to RPMI 1640 medium containing L6 cells, L-glutamine (200 mM) and fetal bovine serum was added to achieve concentration of 1% and 10%, respectively. The culture was conducted under CO2 concentration 5% and temperature 37° C.
Either the compound of the invention or a positive control (benznidazole) was dissolved into DMSO to prepare test solution having predefined concentration. To each well in a 96-well culture plate, medium containing 5×10^3 protozoa was added and precultured for 48 hours. After replacing the medium, either the test solution containing compound of the invention in predefined concentration or DMSO without compound was added. The test solution was duplicated.
The plate was cultured in an incubator for 96 hours, and the proliferation inhibition activity was examined. The activity was determined as follows. To each well, 50 μL CPRG/Nonidet was added, then left for 2 to 6 hours. Then the culture plate was mounted on an absorption microplate reader to determine absorption at 540 nm. The trypanosoma infection rate of the sample containing the test compound and that of the control sample was calculated.
(§3) Using the protozoa infection rate thus obtained, the proliferation inhibition rate was calculated according to the following equation to determine 50% proliferation inhibition concentration (EC50).
as §1
(§4) a: initial infection rate b: infection rate of the test compound solution c: infection rate of the control

[4] = test system: Trypanosoma brucei rhodensiense (STIB 900 strain); assay: African trypanosoma protozoa proliferation inhibition screening test; format: cell-based; details: for Selective toxicity: EC50 rat L6 cells / EC50 African trypanosoma protozoa; for EC50: Trypanosoma brucei, read-out: EC50 Trypanosoma brucei rhod.
Method: In this experiment, bloodstream form trypomastigote of Trypanosoma brucei rhodensiense (STIB 900 strain) was used. The medium used in the experiment was prepared as follows: to filter-sterilized MEM medium, 25 mM N-2-hydroxyethylpiperazine-2-ethane sulfonate (HEPES), 1 g/L glucose, 1% MEM nonessential amino acid, 0.2 mM 2-mercaptoethanol, 2 mM pyruvic calcium salt, 0.1 mM hypoxanthine, and 15% heat-treated horse serum were added. The protozoa was cultured under atmosphere of CO2 concentration 5% and temperature 37° C.
Either the compound of the invention or a positive control (melarsoprol) was dissolved into dimethylsulfoxide (DMSO) to prepare test solution having predefined concentration. To each well in a 96-well culture plate, medium containing 8×10^3 protozoa, and either test solution containing the test compound at predefined concentration or DMSO without compound was added. Then medium was added to achieve 100 μL. The test solution was duplicated.
The culture plate was cultured in an incubator for 72 hours, and the proliferation inhibition activity was examined. The activity was determined as follows. To each well, 10 μL Alamar blue water solution was added, then the plate was again cultured for 2 hours. Then the culture plate was mounted on a fluorescence microplate reader (Spectramax Gemeni XS; Molecular Devices Corporation, U.S.), and irradiated with 536 nm excitation wavelength to determine fluorescence at 588 nm. The trypanosoma infection rate of the sample containing the test composition and that of the control sample was calculated.
as §3, §1, §4

[5] = test system: Leishmania donovani (MHOM/ET/67/L82 strain); assay: Leishmania protozoa proliferation inhibition screening test; format: cell-based
Method: In this experiment, Leishmania donovani (MHOM/ET/67/L82 strain) was used. The protozoa were successively cultured in Syrian Golden hamsters to obtain amastigote. The medium used in the experiment was SM medium having heat-treated fetal bovine serum 10% added, and pH prepared to 5.4. The culture was conducted under CO2 concentration 5% and temperature 37° C.
Either the compound of the invention or a positive control (miltefosine) was dissolved into DMSO to prepare test solution having predefined concentration. To each well of a 96-well culture plate, medium containing predetermined number of protozoa was added and the culture was pre-treated. The concentration of amastigote was determined by CASY cell analyze system (Scharfe GMBH Co., Germany). Subsequently, either test solution containing compound of the invention in predefined concentration or DMSO without compound was added. The test solution was duplicated.
The plate was cultured in an incubator for 72 hours, and the proliferation inhibition activity was examined. The activity was determined as follows. To each well, 10 μL Alamar blue aqueous solution was added, then cultured again for 2 hours. Then the culture plate was mounted on a fluorescence microplate reader (Spectramax Gemeni XS; Molecular Devices Corporation, U.S), and irradiated 536 nm excitation wavelength to determine […] at 588 nm. The leishmania infection rate of the sample containing the test compound and that of the control sample was calculated.
as §3, §1, §2

[6] = test system: Plasmodium berghei NK 65 strain; assay: animal or person; format: in vivo; details: for inhibition in vivo at 25 mg/kg/day: Plasmodium berghei, ip, 96 h, read-out: Recovery Rate (suppression); for Survival days (mean survival days, treatment group minus control group): dose 25 mg/kg/d intraperitoneally, 4 days
From the text: For a test to evaluate therapeutic effect of the compound, 4-day suppressive test which is commonly used for in vivo test to evaluate activity of anti-malaria compound was used. In this experiment, rodent malaria protozoa (Plasmodium berghei NK 65 strain) were used. The infected blood was collected from 5-weeks age (SPF) ICR strain male mouse which were infected intraperitoneally and successively cultured. From the caudal vein of the infected mouse, blood was collected to calculate infection rate. After confirming that infection rate was adequately elevated (10% to 20% infection), the malaria infected blood was collected from the heart of the mouse. The infection rate and count of the red blood cells (cells/mL) were calculated. The infected red blood cell was diluted with PBS buffer to achieve […] protozoa per 0.2 mL dose. The infected cells were injected to the caudal vein of uninfected mouse (ICR strain, male, 5-weeks age) to cause infection. Five mice were made into one group, and the test compound was administered in predefined concentration. From 2 hours after infection, the compound was administered every 24 hours for straight 4 days.
The compound of the invention to be used in this test was dissolved in saline (Otsuka Pharmaceutical Co., Ltd.) to obtain test solution of predefined concentration. When the compound was not dissolved in saline, it was dissolved in SSV (saline containing 0.5% sodium=carboxymethyl cellulose, 0.5% benzyl alcohol, 0.4% Tween 80) to prepare test solution. For the control group (non-treatment group), only saline (Otsuka) was administered. Positive controls S-1 to S-5 were dissolved in saline (Otsuka) or SSV in predetermined concentration to prepare test solution. When the compound was not dissolved in saline, it was dissolved in SSV. After measuring weight of each mouse, the dose for each mouse was calculated to achieve 5.0 to 40 mg concentration for weight1 kg.
Five mice were made into one group, and the test compound was administered intraperitoneally at predefined concentration. From 2 hours after infection, the compound was administered every 24 hours for straight 4 days. Subsequent to the 24 hours after last treatment, blood was collected from the tail of the mouse to prepare thin layer smear in order to count malaria protozoa infection in the treatment group and the control group under microscope. The mice showing maximum value and minimum value were excluded from the average calculation (average was calculated for three mice), to determine malaria protozoa infection rate (Parasitemia).
Using malaria protozoa infection rate thus calculated, recovery rate obtained from the test compound (suppression) was determined.
Recovery rate: suppression(%)=(b−a)/b×100 a: Protozoa infection rate in the treatment group b: Protozoa infection rate in the control group Mean survival days: MSD(day)=c−d c: Average days from the initial treatment (date of malaria infection) to the date of death for the treatment group (5 mice) d: Average days from the date of malaria infection to the date of death for the non-treatment (control) group (5 mice) […]
Tables 5 to 7 illustrate the recovery rate (%) and survival days (day) of malaria infected mice treated with intraperitoneal injection of the test compound and the control compound at predefined concentration. The meaning of symbols in the table is as follows.

[7] = chloroquine-resistant K1 strain, 3H-hypoxanthine uptake, read-out: EC50 P. falciparum K1
[8] = L6 cells (rat skeletal myoblasts), Table 1, Alamar Blue
[9] = STIB900, STIB 900 bloodstream form, 72 hours, Alamar blue

Structure (SMILES) | Selective toxicity [1] | EC50 ([1]; K1, read-out: EC50 P. falciparum K1) [ng/mL] | EC50 at 72 h ([2]; Table 1, rat L6 cells, Alamar Blue) [µg/mL] | EC50 [1, 7] [ng/mL] | Selective toxicity [3] | EC50 [3] [µg/mL] | EC50 at 72 h [2, 8] [µg/mL] | Selective toxicity [4] | EC50 [4, 9] [µg/mL] | Selective toxicity ([5]; EC50 rat L6 cells / EC50 leishmania protozoa) | EC50 ([5]; Leishmania donovani, amastigote, 72 hours, Alamar blue, read-out: EC50 Leishmania donovani) [µg/mL] | inhibition in vivo at 25 mg/kg/day [6] [%] | Survival days (mean survival days, treatment group minus control group) [6] [days] | EC50 at 72 h ([2]; Table 2, rat L6 cells, Alamar Blue) [µg/mL] | EC50 ([4]; STIB900, 72 h) [µg/mL]
CCN(CC)CCCC(C)Nc1ccnc2cc(Cl)ccc12 (stereo not shown) [Chloroquine, reference compound] | 1300 | 47 (≈ 0.147 µM) | 60 (≈ 188 µM) |  |  |  |  |  |  |  |  |  |  |  | 
CCN1C(=O)/C(=c2\nc3c(s2)=CC=CN3C)S/C1=N\c1scc[n+]1C.[Cl-] [Compound A-20] | 2211 |  |  | 11 | 32 | 0.763 | 24.3 | 256 | 0.095 |  |  |  |  |  | 
CCN1C(=O)/C(=c2\nc3c(s2)=CC=CN3C)S/C1=N\c1sc2ccccc2[n+]1C.[Cl-] [Compound A-21] | 3005 |  |  | 2 | 41 | 0.145 | 6.01 | 207 | 0.029 | 18 | 0.343 |  |  |  | 
CCN1C(=O)/C(=c2\nc3c(s2)=CC=CN3C)S/C1=N\c1cccc[n+]1C.[Cl-] [Compound A-22] | >782 |  |  | 11.5 |  |  | > 90 |  |  |  |  |  |  |  | 
CCn1c(=O)/c(=C2\SCCN2C)s/c1=C1\S/C(=N\c2scc[n+]2C)N(C(C)C)C1=O [Compound B-35] | 3630 |  |  | 6 |  |  | 21.8 |  |  |  |  | 63.5 | 3.5 |  | 
CCn1c(=O)/c(=C2\C=CC=CN2C)s/c1=C1\S/C(=N\c2sc3cc(Cl)ccc3[n+]2C)N(C(C)C)C1=O [Compound B-36] | 1165 |  |  | 9 |  |  | 10.5 | 85 | 0.123 |  |  | 95.5 | 1.7 |  | 
Nc1nc(N)nc(Nc2ccc([As]3SCC(CO)S3)cc2)n1 (stereo not shown) [Melarsoprol, reference compound] |  |  |  |  |  |  |  | 1300 |  |  |  |  |  | 3.1 | 0.0024
